Laboratory results taken from publication PMC10862539, “Chelation of Mitochondrial Iron as an Antiparasitic Strategy” (ACS Infectious Diseases, 2024).
Where two headings read alike, the source gives them in different places.

Columns and labels:
murine macrophage [1] = assay: Murine macrophage axenic monoculture EC50; type: cell-based, mouse; settings: Mus musculus, Macrophage, read-out: EC50 axenic murine macrophage
P. falciparum = assay: Drug sensitivity assay, P. falciparum (SYBR green I); type: cell-based, Plasmodium falciparum; settings: for selectivity (for −Fe): EC50 human fibroblasts / EC50 P. falciparum; for EC50: Plasmodium falciparum
Experimental: (§1) All organisms were cultivated according to the conditions summarized in Table S2, which also includes strain specifications. Dose–response curves were obtained by their cultivation on 96 well plates in a 2-fold series dilution of the appropriate drug, in a total volume of 200 μL (with the exception of P. falciparum, where the total volume was 100 μL). Iron supplementation was achieved by mixing the compound with Fe-NTA in an equimolar ratio prior to setting up the experiment. Results were plotted and processed using Prism 8.0 (GraphPad Software). A two-tailed unpaired t-test was performed to assess the significance of the difference between mitoDFO with and without added iron. Selectivity was calculated as the ratio of the average EC50 value for human fibroblasts to the average EC50 value for the appropriate pathogen. All data were obtained from a minimum of three independent biological replicates.

T. gambiense (BSF) = assay: Drug sensitivity assay, T. gambiense bloodstream form (resazurine); type: cell-based, Trypanosoma gambiense; settings: for selectivity (for −Fe): EC50 human fibroblasts / EC50 T. gambiense (BSF); for EC50: Trypanosoma brucei, 72 h
Experimental: as §1

C. neoformans = assay: Drug sensitivity assay, C. neoformans (OD600); type: cell-based, Cryptococcus neoformans; settings: for EC50: Cryptococcus neoformans, 72 h
Experimental: as §1

murine macrophage [2] = assay: Intracellular L. mexicana infection assay, macrophage population; type: cell-based, mouse; settings: Mus musculus, Macrophage, read-out: EC50 infection assay murine macrophage
Experimental: (§2) Approximately 10 000 murine macrophages per well were seeded on 96 well plate, and a suspension of 60 000 L. mexicana GFP-expressing promastigotes was added to each well and left to infect the mammal cells for 72 h in a cultivation medium under the conditions described in Table S2. 2-fold dilution series starting with 100 μM of either mitoDFO, DFO, or Amphotericin B in a regular growth medium were added, and cultures were incubated for further 72 h in the same conditions. Macrophage cells were washed and resuspended in growth medium and detached by pipetting, and their concentration in each well was measured on a Guava EasyCyte 8HT flow cytometer (Luminex). The GFP signal of internalized L. mexicana amastigotes in each macrophage was detected using a 488 nm excitation laser and a 525/30 nm detector. Median fluorescence graphs were plotted, and EC50 values for both macrophages and intracellular L. mexicana were calculated using Prism 8.0 (GraphPad Software).

T. brucei 427 (BSF) = assay: Drug sensitivity assay, T. brucei 427 bloodstream form (resazurine); type: cell-based, Trypanosoma brucei; settings: for selectivity (for −Fe): EC50 human fibroblasts / EC50 T. brucei 427 (BSF); for EC50: Trypanosoma brucei, 72 h
Experimental: as §1

G. intestinalis = assay: Drug sensitivity assay, G. intestinalis (flow cytometry); type: cell-based; settings: for EC50: Giardia duodenalis, 24 h
Experimental: as §1

B. divergens = assay: Drug sensitivity assay, B. divergens in bovine erythrocytes (flow cytometry); type: cell-based, Babesia divergens; settings: for EC50: Babesia divergens, Erythrocyte, 48 h; for selectivity (for −Fe): EC50 human fibroblasts / EC50 B. divergens
Experimental: as §1

L. major (promastigote) = assay: Drug sensitivity assay, L. major promastigote (flow cytometry); type: cell-based; settings: for EC50: Leishmania major, 120 h
Experimental: as §1

T. brucei STIB (BSF) = assay: Drug sensitivity assay, T. brucei STIB bloodstream form (resazurine); type: cell-based, Trypanosoma brucei; settings: for selectivity (for −Fe): EC50 human fibroblasts / EC50 T. brucei STIB (BSF); for EC50: Trypanosoma brucei, 72 h
Experimental: as §1

iron-containing fumarase = assay: Fumarase activity in cytosolic and mitochondrial fractions of treated T. brucei 427; type: cell-based, Trypanosoma brucei; settings: 0.12 μM compound, 24 h; for reduction of cytosolic fumarase activity: cytosolic fraction; for reduction of mitochondrial fumarase activity: mitochondrial fraction
Experimental: T. brucei 427 bloodstream forms were preincubated for 24 h in appropriate conditions (0.12 μM mitoDFO, 0.12 μM DFO, and no addition) and harvested, and cytosolic and mitochondrial fractions were separated by digitonin fractionation as described previously.[46] Briefly, cells were spun down (1200 g, 15 min, 4 °C) and resuspended in SHE buffer (250 mM sucrose, 25 mM HEPES, 1 mM EDTA, pH 7.4), and protein concentration was measured using a BCA kit (Sigma-Aldrich). Subsequently, cells were transferred into HBSS (Sigma-Aldrich) and digitonin (Calbiochem) was added in the protein/digitonin ratio of 1/0.15 for 4 min and spun (21 000 g, 2 min, 4 °C). The supernatant was collected and placed on ice as a cytosolic fraction. The remaining pellet was lysed using 0.1% Triton X-100 in HBSS for 5 min, resuspended, washed in HBSS twice, and used as a mitochondrial fraction. The activities of cytosolic pyruvate kinase and mitochondrial threonine dehydrogenase were assessed in all conditions using the spectrophotometric assay at […], as described in ref ([46]), and served both as markers of successful fraction preparation and to assess the effect of the studied compounds. Briefly, pyruvate kinase was measured in TEA buffer (0.1 M triethanolamine, 5 mM MgSO4, 50 mM KCl, pH 7.6) with added 2.8 mM phosphoenolpyruvate, 2 mM ADP, 0.3 mM NADH, and lactate dehydrogenase. Threonine dehydrogenase was measured in 0.2 M Tris–HCl buffer, pH 8.6, 0.25 KCl with 120 mM threonine, and 2.5 mM NAD^+. Fumarase was measured at […] in 2 mM Tris–HCl buffer, pH 7.5, with 20 mM malate.

[3] = system: intracellular Leishmania mexicana amastigotes; assay: Intracellular L. mexicana infection assay, GFP amastigotes in macrophages; type: cell-based; settings: for EC50: Leishmania mexicana, Macrophage, read-out: EC50 infection assay Leishmania mexicana
Experimental: as §2

A. castellanii = assay: Drug sensitivity assay, A. castellanii (flow cytometry); type: cell-based, Acanthamoeba castellanii; settings: for EC50: Acanthamoeba castellanii, 96 h; for selectivity (for −Fe): EC50 human fibroblasts / EC50 A. castellanii
Experimental: as §1

In the case of CC(=O)N(O)CCCCCNC(=O)CCC(=O)N(O)CCCCCNC(=O)CCC(=O)N(O)CCCCCN [DFO, Deferoxamine, reference compound], the EC50 (murine macrophage [1]; axenic monoculture) is reported as > 25 µM, the “selectivity (for −Fe)” value (P. falciparum) is reported as >8 and the EC50 (P. falciparum; iron-free compound, P. falciparum, 48 h, read-out: EC50 –Fe) is reported as 12.7 ± 0.6 µM. For the same compound, the EC50 (P. falciparum; pre-treated with equimolar iron, P. falciparum, 48 h, read-out: EC50 +Fe) was > 50 µM, the “selectivity (for −Fe)” value (T. gambiense (BSF)) was >40 and the EC50 (T. gambiense (BSF); iron-free compound, T. gambiense (BSF), read-out: EC50 –Fe) was 2.47 ± 1.16 µM. The EC50 (T. gambiense (BSF); pre-treated with equimolar iron, T. gambiense (BSF), read-out: EC50 +Fe) was > 25 µM, the EC50 (C. neoformans; iron-free compound, C. neoformans, read-out: EC50 –Fe) was > 100 µM and the EC50 (C. neoformans; pre-treated with equimolar iron, C. neoformans, read-out: EC50 +Fe) was > 100 µM. For the same compound, the EC50 (murine macrophage [2]; infected macrophages, 72 h treatment) was 45.3 ± 3.09 µM, the “selectivity (for −Fe)” value (T. brucei 427 (BSF)) was >5 and the EC50 (T. brucei 427 (BSF); iron-free compound, T. brucei 427 (BSF), read-out: EC50 –Fe) was 22 ± 1.2 µM. For the same compound, the EC50 (T. brucei 427 (BSF); pre-treated with equimolar iron, T. brucei 427 (BSF), read-out: EC50 +Fe) was > 50 µM, the EC50 (G. intestinalis; iron-free compound, G. intestinalis, read-out: EC50 –Fe) was > 100 µM and the EC50 (G. intestinalis; pre-treated with equimolar iron, G. intestinalis, read-out: EC50 +Fe) was > 100 µM. For the same compound, the EC50 (B. divergens; iron-free compound, B. divergens, read-out: EC50 –Fe) was 10.8 ± 1.3 µM, the EC50 (B. divergens; pre-treated with equimolar iron, B. divergens, read-out: EC50 +Fe) was > 50 µM and the “selectivity (for −Fe)” value (B. divergens) was >9. For the same compound, the EC50 (L. major (promastigote); iron-free compound, L. major (promastigote), read-out: EC50 –Fe) was > 25 µM, the EC50 (L. major (promastigote); pre-treated with equimolar iron, L. major (promastigote), read-out: EC50 +Fe) was > 25 µM and the “selectivity (for −Fe)” value (T. brucei STIB (BSF)) was >38. The EC50 (T. brucei STIB (BSF); iron-free compound, T. brucei STIB (BSF), read-out: EC50 –Fe) was 2.61 ± 0.753 µM, the EC50 (T. brucei STIB (BSF); pre-treated with equimolar iron, T. brucei STIB (BSF), read-out: EC50 +Fe) was 14.5 ± 1.18 µM and the “reduction of cytosolic fumarase activity” value (iron-containing fumarase) was “no significant effect”. For the same compound, the “reduction of mitochondrial fumarase activity” value (iron-containing fumarase) was “no significant effect”, the EC50 ([3]; intracellular amastigotes, 72 h treatment) was 47.1 ± 2.91 µM and the EC50 (A. castellanii; iron-free compound, A. castellanii, read-out: EC50 –Fe) was 8.9 ± 0.6 µM. For the same compound, the EC50 (A. castellanii; pre-treated with equimolar iron, A. castellanii, read-out: EC50 +Fe) was > 50 µM and the “selectivity (for −Fe)” value (A. castellanii) was >11.
CC(=O)N(O)CCCCCNC(=O)CCC(=O)N(O)CCCCCNC(=O)CCC(=O)N(O)CCCCCN(CCCCCCCCCC[P+](c1ccccc1)(c1ccccc1)c1ccccc1)CCCCCCCCCC[P+](c1ccccc1)(c1ccccc1)c1ccccc1 [mitoDFO] was tested, and the EC50 (murine macrophage [1]) was 6.34 ± 4.45 µM, the “selectivity (for −Fe)” value (P. falciparum) was 27 and the “DFO/mitoDFO ratio (−Fe)” value (P. falciparum; P. falciparum) was 38.0. For the same compound, the “mitoDFO EC50 ratio + Fe/–Fe” value (P. falciparum; P. falciparum) was 1.4, the EC50 (P. falciparum) was 0.334 ± 0.01 µM and the EC50 (P. falciparum; 48 h, read-out: EC50 –Fe) was 0.33 ± 0.01 µM. The “selectivity (for −Fe)” value (T. gambiense (BSF)) was 49, the “DFO/mitoDFO ratio (−Fe)” value (T. gambiense (BSF); T. gambiense (BSF)) was 13.7 and the “mitoDFO EC50 ratio + Fe/–Fe” value (T. gambiense (BSF); T. gambiense (BSF)) was 1.2. The EC50 (T. gambiense (BSF); GAMBIENSE, read-out: EC50 –Fe) was 0.181 ± 0.043 µM, the “DFO/mitoDFO ratio (−Fe)” value (C. neoformans; C. neoformans) was >50 and the “mitoDFO EC50 ratio + Fe/–Fe” value (C. neoformans; C. neoformans) was 2.1. The EC50 (C. neoformans; read-out: EC50 –Fe) was 2 ± 0.5 µM, the “selectivity (for −Fe)” value (C. neoformans; EC50 human fibroblasts / EC50 C. neoformans) was 4 and the EC50 (murine macrophage [2]; 72 h) was 4.67 ± 1.18 µM. The “selectivity (for −Fe)” value (T. brucei 427 (BSF)) was 151, the “DFO/mitoDFO ratio (−Fe)” value (T. brucei 427 (BSF); T. brucei 427 (BSF)) was 372.9 and the “mitoDFO EC50 ratio + Fe/–Fe” value (T. brucei 427 (BSF); T. brucei 427 (BSF)) was 2.1. The EC50 (T. brucei 427 (BSF); read-out: EC50 –Fe) was 0.059 ± 0.022 µM, the EC50 (G. intestinalis; read-out: EC50 –Fe) was > 50 µM and the “effect on G. intestinalis” value (G. intestinalis; in words) was “not affected”. For the same compound, the “DFO/mitoDFO ratio (−Fe)” value (B. divergens; B. divergens) was 4.7, the “mitoDFO EC50 ratio + Fe/–Fe” value (B. divergens; B. divergens) was 2.5 and the EC50 (B. divergens; read-out: EC50 –Fe) was 2.3 ± 0.8 µM. The “selectivity (for −Fe)” value (B. divergens) was 4, the “selectivity (for −Fe)” value (L. major (promastigote); EC50 human fibroblasts / EC50 L. major (promastigote)) was 5 and the “DFO/mitoDFO ratio (−Fe)” value (L. major (promastigote); L. major (promastigote)) was >13.2. For the same compound, the “mitoDFO EC50 ratio + Fe/–Fe” value (L. major (promastigote); L. major (promastigote)) was 4.8, the EC50 (L. major (promastigote); read-out: EC50 –Fe) was 1.9 ± 0.6 µM and the “selectivity (for −Fe)” value (T. brucei STIB (BSF)) was 28. The “DFO/mitoDFO ratio (−Fe)” value (T. brucei STIB (BSF); T. brucei STIB (BSF)) was 8.1, the EC50 (T. brucei STIB (BSF); read-out: EC50 –Fe) was 0.32 ± 0.067 µM and the “reduction of cytosolic fumarase activity” value (iron-containing fumarase) was “approximately 3 fold”. The “reduction of mitochondrial fumarase activity” value (iron-containing fumarase) was “approximately 3 fold”, the “decrease in EC50 concentration, intracellular amastigotes versus axenic parasites” value [3] was 2 fold and the EC50 ([3]; 72 h) was 0.67 ± 0.24 µM. For the same compound, the “DFO/mitoDFO ratio (−Fe)” value (A. castellanii; A. castellanii) was 11.1, the “mitoDFO EC50 ratio + Fe/–Fe” value (A. castellanii; A. castellanii) was 1.3 and the “selectivity (for −Fe)” value (A. castellanii) was 11.
